One experiment relates to NF-KB. As to the kind of experiment: NF-KB luciferase reporter activation in A549 NF-KB cells. The conditions noted are these: 11 h, LPS 2.5 μg/ml, PMA 10^−8M. Type of experiment: cell-based, human. The source says: The plasmid pNF-KB-Luc responding to NF-KB was constructed as a derivative of the plasmid pTK3kbB described by Boehmelt et al., 1992. In order to do this, pTK3kbB was cut with XhoI and NcoI in order to remove the majority of the sequence coding for CAT, treated with Klenow enzyme and ligated with a Klenow-treated HindIII/SspI fragment of PRSVL, containing the luciferase sequence (De Wet et al., 1987). This yielded the plasmid p3K-Luc which contains a triple binding site for the transcription factor NF-KB plus the luciferase sequence, driven by a thymidine kinase (TK) TATA box.
(§1) In order to prepare the clonal cell lines, containing the reporter plasmid pNF-KB-Luc or pIL-6-Luc, the human lung cancer cell line A549 (ATCC CCL 185) was used as starting material. The plasmids were co-transfected with the neomycin-phosphotransferase-expression plasmid designated pmuatt (a pUC19 plasmid containing the TKneo-sequence; Grosveld et al., 1982) using the transfectam method (Behr et al., 1989) and selected for cells which are resistant to 400 μg/ml of G418 (Sigma). Clonal derivatives which expressed luciferase after induction by PMA were identified and expanded.
(§2) The luciferase activity was determined as described in WO 93/07283.
(§3) Stable clones of the lung epithelial carcinoma cell line A549 were produced, which contained pNF-KB-luc or pIL-6-luc as reporter gene construct. […]
A general note: Reporter assays use an easily measured gene product as a stand-in for the process of interest.

For experiment [1], the system named is IL-6 promoter (NF-IL-6/NF-KB). As to the kind of experiment: IL-6 promoter luciferase reporter activation in A549 IL-6 cells. Type of experiment: cell-based, human. The conditions noted are these: A549/NF-IL-6 luciferase; 10 h; PMA 10^−8M, virus 10^4 Particle/cell.
Source text: The construct described by Matsusaka et al., 1993 was used, which contains the luciferase sequence driven by the IL-6 promoter.
as §1, §2, §3
In order to determine the time sequence of the NF-IL-6-and NF-KB-activation, the cells of the two cell lines which were found in the above quantities in a 24 well plate or 6 well plate were each treated with 10^4 adenovirus dl1014 virus particles per cell (which corresponded to 4×10^8 virus particles for each well of the A549 NF-KB cells or 4×10^9 virus particles for each well of the A549 IL-6 cells). […]

For experiment [2], the system named is primary human fibroblasts. As to the kind of experiment: Luciferase gene expression after adenovirus-aided transferrinfection of primary human fibroblasts. Type of experiment: cell-based. As to conditions: for Induction (-fold) of luciferase expression: 3 μM dexamethasone, 24 hours after transfection; for improvement in gene expression: absence of E1B 19K, dexamethasone 10 μM, ibuprofen 100 μM, 5,8,11-eicosatriynoic acid 30 μM. Here is the method: Samples of biotinylated, psoralen/UV-inactivated adenovirus dl1014 (8 μl, 1×10^12 particles/ml) were diluted in 150 μl of HBS and mixed with 1 μg of StpL in […] of HBS for 30 minutes at ambient temperature. Aliquots of 6 μg of plasmid DNA (in the case of mixtures of pCMVL-DNA and another plasmid the ratio was 5:1) were diluted in 100 μl of HBS and then mixed with the adenovirus/StpL solution for 30 minutes at ambient temperature. Finally, a 100 μl aliquot of HBS, containing 5 μg of TfpL, was added to each sample, followed by 30 minutes' incubation at ambient temperature.
After surgical removal, skin biopsies were added to 4° C. DMEM containing 10% heat-inactivated FCS, 2 mM glutamine and gentamycin. The biopsies were carefully cut up in a tissue culture device using forceps and a surgical blade in a laminar air current in sterile 6 cm plastic dishes. Then 3 ml of DMEM, containing 20% FCS, 2 mM glutamine and antibiotics were added and the culture was placed in an incubator at 37° C. After 10 days the medium was replaced by DMEM containing 10% FCS. Then the medium was changed a further 2 times a week. 4 weeks after the start of cultivation the cells which had grown out of the tissue fragments were trypsinised and plated out into new culture dishes for transfection.
as §2
First of all, a series of experiments were carried out intended to establish whether the expression of certain adenovirus genes is capable of intensifying gene expression after transferrinfection. A defined quantity of the luciferase expression plasmid pCMVL (5 μg) was mixed with various plasmid DNA (1 μg in each), incorporated in TfpL/StpL/adenovirus transfection complexes (total volume 500 μl) and applied to primary human fibroblasts (50 μl of complex were applied to 2×10^4 cells per well in a 24-well plate, corresponding to 2.5×10^4 virus particles per cell, the measurements being carried out three times. In FIG. 4 “minus” denotes pSP65; the test DNA is specified in each case). The luciferase activity obtained was measured 48 to 72 hours after transfection. […] The E1 region contains two main gene functions, E1A and E1B. (The E1A products have the effect of separating E2F from the Rb protein and on the other hand they modulate the transcription activity of numerous cellular and adenovirus promoters. The main transcription-transactivator function is contained in the 13S gene product. The 1B gene codes for two main functions: the E1B 55K gene product binds p53 and changes its function. It is assumed that the 19K E1B gene product acts underneath p53 in order to block the apoptotic response).
In order to do this, transfection complexes containing pCMVL plus the plasmid pSP65, or the plasmids which contained the sequence for Bcl-2, E1A or E1B 19K (the quantities of reporter plasmid pCMVL and the relevant test plasmid were 5 μg and 1 μg, respectively, as in the previous Example), with virus particle numbers of 3×10^4 (FIG. 5A), 10^4 (FIG. 5B) or 3×10^3 (FIG. 5C) per cell were applied to primary fibroblasts and the luciferase activity was measured over a period of time. The transfections were carried out as described in the preceding Examples, the cells being given 6, 18 or 60 μl of transfection complex per well, containing 2×10^4 fibroblasts.
(In these experiments, the cells in a well were given 18 μl of transfection complex.) From day 10 onwards, the culture medium was replaced with fresh medium daily; the idea of this procedure was to lower the concentrations of toxins by changing the medium.

Molecules are shown by their SMILES. “Also recorded” adds a separate entry of the source.

On to `CCCCCCCCCCCCCC(=O)O[C@@H]1[C@@H](C)[C@@]2(O)[C@@H](C=C(CO)C[C@]3(O)C(=O)C(C)=C[C@@H]23)[C@@H]2C(C)(C)[C@]12OC(C)=O` [PMA, Phorbolmyristylacetate], for which the “Increase (-fold)” value with NF-KB is 2.0 (11 h) -fold; in experiment [1], 2.0 (10 h) -fold.
For `C[C@@H]1C[C@H]2[C@@H]3CCC4=CC(=O)C=C[C@]4(C)[C@@]3(F)[C@@H](O)C[C@]2(C)[C@@]1(O)C(=O)CO` [Dexamethasone, dexamethasone], the “Induction (-fold) of luciferase expression” value in experiment [2] (pCMVL/pCMV19K) is 2.71 -fold; in experiment [2] (pCMVL/pSP65 (absence of pCMV19K)), 1.65 -fold.
Regarding `CC(C)Cc1ccc(C(C)C(=O)O)cc1` (stereo not drawn) [ibuprofen, Ibuprofen], the “improvement in gene expression” value in experiment [2] is listed as “only dexamethasone brings about a substantial improvement”.
Consider `CC(=O)Oc1ccccc1C(=O)O` [aspirin, acetylsalicylic acid], for which, in experiment [2] (10 μM dexamethasone or 2 mM Aspirin from 2 hours after transfection, with and without E1B 19K), the “effect on gene expression (luciferase) over time” value was “increase in gene expression both in the presence and in the absence of E1B 19K; also recorded: less marked than that of dexamethasone”. Besides, the “interaction with the E1B 19K gene in increase of gene expression” value in experiment [2] (10 μM dexamethasone or 2 mM Aspirin, pCMV19K co-transfected) is recorded as “synergistic effect”.
As for `CCCCCCCCC#CCC#CCC#CCCCC(=O)O` [5,8,11-eicosatriynoic acid], the “improvement in gene expression” value in experiment [2] is “only dexamethasone brings about a substantial improvement”. For the same compound, the “effect on gene expression” value in experiment [2] (presence of E1B 19K, dexamethasone 10 μM, 5,8,11-eicosatriynoic acid 30 μM) is recorded as “synergistic effect”.

The record behind these values is patent publication US20020049313A1, “Method for introducing foreign material into higher eukaryotic cells” (priority 1994, published 2002).
